Reference: US20120122225A1, “CARRIER PEPTIDE FRAGMENT AND USE THEREOF” (TOAGOSEI CO. LTD., priority 2009, published 2012)
* marks the point of attachment. FITC = O=C1OC2(c3ccc(O)cc3Oc3cc(O)ccc32)c2ccc(NC(=S)*)cc21; Ahx = NCCCCCC(=O)O

Columns and labels:
[1] = tested on: human iPS cells (cell line 201B2-082008KU); test: Evaluation of cell membrane permeability function (2), confocal laser scanning microscopy of fluorescently labeled peptide; format: cell-based; conditions: 1 μM sample; for penetration of the cell membrane from outside the cell / transfer into the cells: 1 hour culture (FIGS. 3, 4), methanol fixed
Excerpt: The target cells for transferring the foreign substance were changed from human neonate foreskin fibroblasts to human iPS cells (human induced pluripotent stem cells), and the cell membrane permeability capability of the two samples (constructs for transferring a foreign substance) obtained in Example 1 above was investigated. It should also be noted that the iPS cells (cell line 201B2-082008KU) and the mouse embryonic fibroblast feeder cells (cell line SNL 76/7, hereinafter “MEF”) used in this example were provided by the Yamanaka Research Laboratory of the Institute for Frontier Medical Sciences, Kyoto University (professor Shinya Yamanaka).
First the obtained MEF were inactivated by a mitomycin C treatment (3 hours) and then trypsinized in a 0.25% trypsin solution containing 1 mM EDTA. After the above treatment, the trypsin was deactivated with culture medium containing FBS, and the MEF were adjusted to a suitable cell density using D-MEM medium (Dulbecco's Modified Eagle Medium: Gibco) containing MEF culture medium (7% FBS: Gibco), 2 mM L-glutamine (Gibco), 50 units/mL penicillin, and 50 μg/mL streptomycin (Gibco), and the abovementioned MEF were seeded onto a culture container (in the form of a culture slide or plate) with a surface coating of 0.1% gelatin. In this case, the MEF were seeded so that the cell density would be approximately 1.25×10^5 cells/mL. Next, the abovementioned cell culture containers were incubated overnight at 37° C. in a 5% CO2 atmosphere.
Thereafter, the feeder cells were prepared by removing the MEF culture medium and rinsing with PBS.
Separately, CTK solution (0.25% trypsin solution containing 0.1 mg/mL collagenase IV (Gibco), 1 mM calcium chloride, and 20% KSR (KnockOut® Serum Replacement)) was added to the obtained iPS cell line, the MEF were peeled therefrom, and the cells were rinsed with PBS.
Next, 1 mL hESC culture medium (i.e., human ES cell medium, in this case, DMEM/F12 culture medium (Gibco) containing 20% KSR (Gibco), 2 mM L-glutamine (Gibco), 0.1% nonessential amino acids (Gibco), 0.1 mM 2-mercaptoethanol (Gibco), 50 units/mL penicillin, and 50 μg/mL streptomycin (Invitrogen, 4 ng/mL bFGF (basic fibroblast growth factor)) was added, the iPS cells were peeled off using a cell scraper, and the colony was broken apart by gentle pipetting.
A suspension of iPS cells obtained in this manner was seeded onto the feeder cells in the culture containers that had been prepared as described above. Then, the abovementioned hESC medium was added, and the cell culture containers were incubated overnight at 37° C. in a 5% CO2 atmosphere.
After incubation overnight, the culture medium was removed from the culture containers, and the abovementioned hESC medium to which one of the 1 mM sample solutions prepared in abovementioned Example 1 had been added to make a final sample concentration (pipetted concentration) of 1 μM was added to the culture containers. Then the samples were incubated at 37° C. for either 1 or 4 hours in a 5% CO2 atmosphere.
The cells after 1 hour of culture and cells after 4 hours of culture were each rinsed in PBS (phosphate buffered saline) and fixed with methanol (on ice for 10 min).
Next, the same treatment as in Example 2 was performed, and the localization within the iPS cells of the peptide that was bonded to the fluorescent dye (i.e., fluorescently labeled) was verified using a confocal scanning laser microscope. FIG. 3 is a micrograph showing the results after 1 hour of culture of the cell suspension to which abovementioned Sample No. 1 had been added, and FIG. 4 is a micrograph after 1 hour of culture of the cell suspension to which abovementioned Sample No. 2 had been added.

[2] = tested on: Human neonate foreskin fibroblasts (ATCC Catalogue No. CRL-2097); test: Evaluation of cell membrane permeability function (1), confocal laser scanning microscopy of fluorescently labeled peptide; format: cell-based; conditions: 1 μM sample
Method: Human neonate foreskin fibroblasts (ATCC Catalogue No. CRL-2097) were used as the eukaryotic cells, and the cell membrane permeability capability of the two samples (constructs for transferring a foreign substance) obtained in Example 1 above was investigated.
More specifically, the abovementioned fibroblasts were cultured in a liquid mixture of 90% Eagle MEM culture medium (containing 0.1% nonessential amino acids, 2 mM L-glutamine, 1 mM sodium pyruvate, and 1.5 g/L sodium hydrogen carbonate) and 10% serum (FBS) as the culture medium.
The cultured cells were trypsinized for 1 min at 37° C. with a 0.25% trypsin solution. After the abovementioned treatment, the trypsin was deactivated with FBS-containing medium, and a cell suspension (test sample for foreign substance transfer) was prepared by adjusting the cell concentration to approximately 5×10^4 cells/mL with the culture medium.
Next, 0.5 mL of the abovementioned cell suspension was placed in a designated cell culturing container (culture slide with a surface coating of 0.1% gelatin), and the cells were incubated overnight at 37° C. in a 5% CO2 atmosphere. After incubation the medium was replaced with fresh culture medium, and the 1 mM sample solutions of each of the samples prepared in abovementioned Example 1 were added to a cell culture container so that the final sample concentration (peptide concentration) would be 1 μM. In this case 0.5 μL of sample solution was added to the container. Then the samples were incubated at 37° C. for either 1 or 4 hours in a 5% CO2 atmosphere.
The cells after 1 hour of culture and the cells after 4 hours of culture were each rinsed in PBS (phosphate buffered saline) and fixed with methanol (on ice for 10 min).
Next the methanol-fixed samples (cells) were mounted using Prolong® Gold Antifade Reagent (Invitrogen) that contains the nuclear stain DAPI (4′,6-diamidino-2-phenylindole). Then the localization within the cells of the peptide bonded to the fluorescent dye (i.e., fluorescently labeled peptide) in each test sample (i.e., the abovementioned mounted test samples after methanol fixation) was verified using a confocal scanning laser microscope.
FIGS. 1 and 2 are micrographs showing the results when abovementioned Sample No. 1 was added to the liquid suspension of cells.

Substance | cell membrane permeability [1] | translocation into the nucleus (DAPI nuclear staining) [1] | penetration of the cell membrane from outside the cell / transfer into the cells [1] | cell membrane permeability [2] | translocation into the nucleus (DAPI nuclear staining) ([2]; 1 or 4 hours culture) | penetration of the cell membrane from outside the cell / transfer into the cells ([2]; 1 or 4 hours culture, methanol fixed)
(FITC)-(Acp)-WRRQARFKGTLKERCLQVVRSLVK ({FITC-Ahx}-WRRQARFKGTLKERCLQVVRSLVK-NH2; SMILES CC(C)C[C@H](NC(=O)[C@H](CS)NC(=O)[C@H](CCCNC(=N)N)NC(=O)[C@H](CCC(=O)O)NC(=O)[C@H](CCCCN)NC(=O)[C@H](CC(C)C)NC(=O)[C@@H](NC(=O)CNC(=O)[C@H](CCCCN)NC(=O)[C@H](Cc1ccccc1)NC(=O)[C@H](CCCNC(=N)N)NC(=O)[C@H](C)NC(=O)[C@H](CCC(N)=O)NC(=O)[C@H](CCCNC(=N)N)NC(=O)[C@H](CCCNC(=N)N)NC(=O)[C@H](Cc1c[nH]c2ccccc12)NC(=O)CCCCCNC(=S)Nc1ccc2c(c1)C(=O)OC21c2ccc(O)cc2Oc2cc(O)ccc21)[C@@H](C)O)C(=O)N[C@@H](CCC(N)=O)C(=O)N[C@H](C(=O)N[C@H](C(=O)N[C@@H](CCCNC(=N)N)C(=O)N[C@@H](CO)C(=O)N[C@@H](CC(C)C)C(=O)N[C@H](C(=O)N[C@@H](CCCCN)C(N)=O)C(C)C)C(C)C)C(C)C) [Sample No. 2, FITC bonded via linker Acp (6-aminohexanoic acid) to the N-terminus of Peptide 2; construct for transferring a foreign substance] | exhibited excellent cell membrane permeability | had further translocated into the nucleus | penetrated the cell membrane from outside the cell rapidly after addition and were transferred into the cells | exhibited excellent cell membrane permeability |  | 
(FAM)-WRRQARFK [Sample No. 1] | exhibited excellent cell membrane permeability | had further translocated into the nucleus | penetrated the cell membrane from outside the cell rapidly after addition and were transferred into the cells | exhibited excellent cell membrane permeability | had translocated into the nucleus | penetrated the cell membrane from outside the cell rapidly after it was added, and thus was transferred into the cells
